{
  "source": "patent US9878054B2",
  "about": "“Polypeptide and lipophilic moiety conjugate compositions, formulations, and uses related thereto” (Tufts Medical Center, Inc., priority 2012, dated 2018)",
  "key": {"PAR4": {"target": "T1, PAR4 (Homo sapiens, UniProt Q96RI0)", "T1 construct": "Platelets were isolated from platelet rich plasma (PRP) using Sepharose 2B columns; endogenous in cells; host or cells: human platelets from healthy donors, gel-filtered", "T1 sequence (Q96RI0 18-385)": "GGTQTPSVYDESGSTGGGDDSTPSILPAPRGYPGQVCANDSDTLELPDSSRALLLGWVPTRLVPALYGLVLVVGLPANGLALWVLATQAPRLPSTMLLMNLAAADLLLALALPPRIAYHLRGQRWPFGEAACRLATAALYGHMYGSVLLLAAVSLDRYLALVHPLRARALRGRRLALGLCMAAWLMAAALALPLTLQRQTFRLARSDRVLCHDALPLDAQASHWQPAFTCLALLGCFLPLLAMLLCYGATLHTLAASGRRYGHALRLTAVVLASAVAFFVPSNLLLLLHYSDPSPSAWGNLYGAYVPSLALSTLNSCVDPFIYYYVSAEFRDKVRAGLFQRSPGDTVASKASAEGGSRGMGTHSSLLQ", "assay": "Human platelet aggregation, PAR4 agonist AYPGKF", "assay_type": "cell-based", "settings": "human platelets; 200 μM AYPGKF", "protocol": "A, Depiction of the mechanism of action of the cell-penetrating PZ-128 pepducin compound targeting the third intracellular loop (red) of PAR1. B, The NMR structure of PZ-128 was determined by simulated annealing methods using 210 distance restraints and included restraints to the proximal 3 hydrocarbons of the lipid. […] D, PZ-128 inhibits PAR1-dependent platelet aggregation. Gel filtered human platelets were treated with various concentrations of PZ-128 and then challenged with the PAR1 agonist SFLLRN (2.5 μM), 20 μM ADP, 200 μM AYPGKF or 1 mg/ml Ristocetin. E, Human platelets were treated with 3 μM PZ-128, 3 μM RWJ-56110, or 5% dextrose vehicle before the addition of various concentrations of thrombin (n=3-5).\nPZ-128 also markedly right-shifted thrombin-induced aggregation by 5-fold. By comparison, the small molecule RWJ-56110 which antagonizes PAR1 at the extracellular ligand-binding site gave a 2-fold right shift in the thrombin activation curve of human platelets.\nWhole blood from healthy donors was collected into a 30 ml syringe containing sodium citrate (0.4% vol/vol final). Platelets were isolated from platelet rich plasma (PRP) using Sepharose 2B columns in modified PIPES buffer."}, "[1]": {"assay": "Bleeding time, platelet counts and hematocrit in baboons", "assay_type": "in vivo", "settings": "baboon; all doses tested (1-6 mg/kg)", "protocol": "Whether PZ-128 had any adverse effects on hemostasis or coagulation indices in baboons and monkeys was evaluated. At all doses tested (1-6 mg/kg), PZ-128 micelles had no effect on bleeding time, platelet counts or hematocrit in baboons (Table 2).\nNon-terminal thrombosis and platelet aggregation studies were performed on 12 healthy male baboons (Papio anubis) weighing 9-12 kg at the Oregon National Primate Research Center (ONPRC). […] Whole blood (10 ml) was collected into PPACK at a final concentration of 100 μg/ml just prior to infusion (baseline) and 15 min to 24 h after the PZ-128 micelle infusion was terminated. Platelet counts and hematocrit were measured immediately. PRP was prepared from whole blood and platelet aggregation performed as described above. Bleeding time (BT) measurements were performed on the shaved volar surface of the forearm using the standard template method."}, "[2]": {"test_system": "guinea pig carotid artery thrombosis", "assay": "Guinea pig carotid artery FeCl3 injury arterial thrombosis model", "assay_type": "in vivo", "protocol": "A carotid artery FeCl3 injury model was used in guinea pigs to assess the anti-thrombotic efficacy of PZ-128 micelles within 15 min of initiation of drug administration. FeCl3 denudes the artery and exposes type I collagen and other subendothelial matrix proteins to initiate platelet-dependent thrombosis. Guinea pigs received 10 min intravenous infusions of PZ-128 micelles, 5 min prior to carotid artery injury. […] Mean occlusion times increased by 4-fold to 40 min at doses above 0.05 mg/kg PZ-128.\nMale Hartley guinea pigs (150˜220 g) were purchased from Charles River Laboratories. A 0.61 mm-diameter catheter was inserted into the left jugular vein of anesthetized animals for administration of infusions of 5% USP dextrose vehicle or PZ-128 micelles. A 0.5 V-Doppler probe (Transonic Systems, Ithaca, N.Y.) was placed around the right carotid artery to record blood flow. A range of doses of PZ-128 micelles from 0.05 to 1.6 mg/kg in 0.9 ml volumes were delivered at an injection rate of 0.09 ml/min by a Harvard syringe pump. Five minutes after the infusion ended, arterial thrombosis was induced by placing a 5×5 mm^2 piece of filter paper soaked in freshly made 20% FeCl3 solution on the right carotid artery 5 mm distal to the probe for 20 minutes. […] To examine possible synergistic effects of PZ-128 micelles and P2Y12-ADP receptor inhibition, 1 mg/kg clopidogrel was administered by oral gavage 4 hours prior to FeCl3 injury. In these synergy experiments, the maximum endpoint was set at 90 minutes for occlusion time."}, "[3]": {"test_system": "guinea pig platelets (ADP)", "assay": "Guinea pig ex vivo platelet aggregation to ADP after iv infusion", "assay_type": "in vivo", "settings": "3 or 6 mg/kg iv, 20 μM ADP", "quoted_text": "PZ-128 or 5% dextrose USP vehicle was infused for 10 min into the jugular vein of male and female guinea pigs (0.55-0.65 kg). A-C, At the 15 min time point, whole blood was collected by cardiac puncture in 100 μg/ml PPACK/4% Na-citrate (final) anti-coagulant and platelet rich plasma (PRP) prepared and aggregation measurements were performed. […] B-C, PRP obtained at the 15 min time point after infusion with vehicle, 3 mg/kg PZ-128 or 6 mg/kg PZ128 was challenged with 2.5 μM SFLLRN, 20 μM ADP or 20 μM thromboxane mimetic, U46119. Individual data points (n=3) are overlayed on bar graphs depicting mean±SD. […] Data in B-D were analyzed by the non-parametric Kruskal-Wallis test with the Dunn's multiple pairwise comparison post-test.\nPZ-128 micelles were delivered by internal jugular vein infusions over 10 min.\nGuinea pigs weighing 600-650 g were used for platelet aggregation experiments. PZ-128 micelles (3 or 6 mg/kg) were administered by a 10 min intravenous infusion, and blood was collected by cardiac puncture into sodium citrate (0.4% vol/vol final) 5 minutes after cessation of the infusion. PRP was prepared and PPACK added to a final concentration of 100 μg/ml. PRP was calcified with 2.5 mM CaCl2 and aggregation was performed as described above."}, "P2Y12 and P2Y1": {"test_system": "P2Y12 and P2Y1", "assay": "Baboon ex vivo platelet aggregation, ADP", "assay_type": "in vivo", "settings": "any dose, any time point", "protocol": "A-C, Male baboons (10-12 kg) were administered 1, 3 or 6 mg/kg PZ-128, or 5% dextrose USP vehicle by iv infusion and blood collected into 100 μg/ml PPACK anticoagulant at 0, 1, 2, 6, or 24 h time points. Light transmission platelet aggregometry was performed with platelet rich plasma with the indicated agonists (SFLLRN for PAR1, AYPGKF for PAR4 and ADP for P2Y12 and P2Y1). Data are reported as mean±SD (n=3-7) relative to time 0 controls (0%) and were analyzed by repeated measures one-way ANOVA with Bonferroni post-test correction; *P<0.05, **P<0.01 relative to time 0. Global P values were >0.05 for 1 mg/kg, 0.004 for 3 mg/kg, <0.0001 for 6 mg/kg. D, Pharmacokinetics of 3 and 6 mg/kg 45-min iv infusions of PZ-128 in male baboons. Plasma PZ-128 levels were measured by LC/MS/MS at 9 sequential time points: baseline, 15 min, 30 min, 1 h, 2 h, 4 h, 8 h, 24 h and 48 h after the start of infusion. Open symbols indicated plasma concentrations that were under the measurement threshold (5 ng/ml).\nThe anti-platelet effects of PZ-128 micelles were next examined in baboons at various time points after receiving different doses of intravenous infusions. […]\nNon-terminal thrombosis and platelet aggregation studies were performed on 12 healthy male baboons (Papio anubis) weighing 9-12 kg at the Oregon National Primate Research Center (ONPRC). […] Platelet counts and hematocrit were measured immediately. […]"}},
  "note": "Where a SMILES comes first, the peptide text is derived from it. The star is where a group is joined. Palmitoyl = CCCCCCCCCCCCCCCC(=O)*",
  "data": [
    {"smiles": "CCCCCCCCCCCCCCCC(=O)N[C@@H](CCCCN)C(=O)N[C@@H](CCCCN)C(=O)N[C@@H](CO)C(=O)N[C@@H](CCCNC(=N)N)C(=O)N[C@@H](C)C(=O)N[C@@H](CC(C)C)C(=O)N[C@@H](Cc1ccccc1)C(N)=O", "note": "[PZ-128, palmitate-KKSRALF-NH2] (Palmitoyl-KKSRALF-NH2)", "values": [
      {"measurement": "Inhibitory activity against PAR4 (AYPGKF) aggregation", "setting": "PAR4", "value": "no inhibitory activity"},
      {"measurement": "Effect on bleeding time, platelet counts or hematocrit", "setting": "[1]", "value": "no effect"},
      {"measurement": "EC50, protection against arterial occlusion", "setting": "[2]; 10 min iv infusion 5 min prior to FeCl3 carotid injury", "value": 0.075, "unit": "mg/kg"},
      {"measurement": "Increase of mean occlusion time", "setting": "[2]; doses above 0.05 mg/kg", "value": 4, "unit": "fold"},
      {"measurement": "Mean occlusion time", "setting": "[2]; doses above 0.05 mg/kg", "value": 40, "unit": "min"},
      {"measurement": "Protection against arterial occlusion when used alone", "setting": "[2]; sub-therapeutic dose alone (PZ-128 0.05 mg/kg; clopidogrel 1 mg/kg PO)", "value": "non-significant protection"},
      {"measurement": "Effect on ex vivo aggregation to ADP", "setting": "[3]", "value": "no effect"},
      {"measurement": "Inhibition of ADP response ex vivo", "setting": "P2Y12 and P2Y1", "value": "no inhibition"}
    ]}
  ]
}
